Test results as given in patent publication US11413278B2, “Compounds and methods for promoting stress resistance” (priority 2015, dated 2022).
“Also recorded” adds a separate entry of the source. Where two headings read alike, the source gives them in different places.

How the values were obtained:
FOXO3 = experiment: qPCR analysis of FOXO3-regulated genes; assay type: cell-based, human; conditions: for Induction of at least two of five FOXO3-regulated genes (SOD2, GADD45A, CAT, DDB1, TXNIP): WI-38; for fold induction at 10 µM: Homo sapiens; for K = Sestrin induction: score
Procedure, shortened: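 FOXO3 target-gene expression quantified by qPCR normalised to B2M, PPIA and GAPDH, in WI-38 cells after 24 h exposure to 10 μM compound. Some runs used cells first transfected 36 h with 10 nM FOXO3 or NRF2 siRNA and replated ~24 h before dosing.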

C. elegans = assay type: in vivo, Caenorhabditis elegans; conditions: in vivo
Description: The worms were treated with the small molecules in liquid, with H2O2 (500 μM final concentration) added on day 4 of adulthood, and scored for viability everyday
FUdR was used to block progeny production. The molecules were analyzed in 96-well plates, with 4 wells for each small molecule. Multiple control wells with DMSO (0.2% final concentration) were included. […] Day 1 adults were transferred onto mini-plates, seeded with OP50 bacteria (UV-irradiated, kanamycin-treated) and supplemented with small molecules (˜60 μM final concentration, 0.2% DMSO). Worms were scored every other day. Cumulative survival was analyzed using the STATA software (log-rank test). […] The worms were treated with the small molecules in liquid, with H2O2 (500 μM final concentration) added on day 4 of adulthood, and scored for viability every day.

human PARP1 = target: T1, human PARP1 (Homo sapiens, UniProt P09874); experiment: PARP inhibitor assay (HT Fluorescent Homogeneous PARP Inhibition Assay Kit); assay type: biochemical; conditions: score
T1 construct: purchased Trevigen
Description: (§1) The assay was performed with the HT Fluorescent Homogeneous PARP Inhibition Assay Kit (Trevigen), following manufacturer's instructions. Briefly, nicotinamide adenine dinucleotide, human PARP1 and activated-DNA solution was added onto a 96-well plate. 54 repurchased small molecules, at 10 μM final concentration, were introduced onto the 96-well assay plate and incubated in a humid chamber at room temperature for 30 min in dark. Cycling mixture, with resazurin and cycling enzyme diaphorase, was then added and incubated further for 1 hr in dark. Reaction was terminated by adding the stopping buffer.
as §1, with “(Trevegen),” for “(Trevigen),”, “stopped” for “terminated”

[1] = 24 h, Assay 10(m), at 10 uM, qPCR, read-out: Induction of FOXO3-regulated genes: CAT normalized fold-change
[2] = 24 h, Assay 10(m), at 10 uM, qPCR, read-out: Induction of FOXO3-regulated genes: DDB1 normalized fold-change
[3] = 24 h, Assay 10(m), at 10 uM, qPCR, read-out: Induction of FOXO3-regulated genes: SESN1 normalized fold-change
[4] = WI-38, 24 h, read-out: SESN1 expression
[5] = 10 μM, 24 hrs, WI-38 cells, qPCR, normalized to B2M, n = 4, read-out: CAT expression, normalized fold change (FOXO3-regulated gene)
[6] = 10 μM, 24 hrs, WI-38 cells, qPCR, normalized to B2M, n = 4, read-out: DDB1 expression, normalized fold change (FOXO3-regulated gene)
[7] = 10 μM, 24 hrs, WI-38 cells, qPCR, normalized to B2M, n = 4, read-out: SESN1 expression, normalized fold change (FOXO3-regulated gene)
[8] = WI-38 cells, 10 μM, 24 hrs, n=4, qPCR normalized by B2M, read-out: DDB1 Normalized fold change
[9] = WI-38 cells, 10 μM, 24 hrs, n=4, qPCR normalized by B2M, read-out: GADD45A Normalized fold change
[10] = WI-38 cells, 10 μM, 24 hrs, n=4, qPCR normalized by B2M, read-out: SESN1 Normalized fold change
[11] = fold change, qPCR, WI-38 cells, 10 μM, 24 hrs, read-out: Summary of effects on FOXO3-regulated genes: CAT
[12] = fold change, qPCR, WI-38 cells, 10 μM, 24 hrs, read-out: Summary of effects on FOXO3-regulated genes: DDB1
[13] = fold change, qPCR, WI-38 cells, 10 μM, 24 hrs, read-out: Summary of effects on FOXO3-regulated genes: SESN1
[14] = qPCR, WI-38 cells, 10 μM, n=4, 24 hrs, normalized by B2M, read-out: CAT Normalized fold change
[15] = qPCR, WI-38 cells, 10 μM, n=4, 24 hrs, normalized by B2M, read-out: SOD2 Normalized fold change
[16] = qPCR, WI-38 cells, 10 μM, n=4, 24 hrs, normalized by B2M, read-out: TXNIP Normalized fold change
[17] = 24 h, Assay 10(m), at 10 uM, qPCR, read-out: Induction of FOXO3-regulated genes: TXNIP normalized fold-change
[18] = 10 μM, 24 hrs, WI-38 cells, qPCR, normalized to B2M, n = 4, read-out: TXNIP expression, normalized fold change (FOXO3-regulated gene)
[19] = fold change, qPCR, WI-38 cells, 10 μM, 24 hrs, read-out: Summary of effects on FOXO3-regulated genes: TXNIP
[20] = 24 h, Assay 10(m), at 10 uM, qPCR, read-out: Induction of FOXO3-regulated genes: GADD45A normalized fold-change

T1 sequence (P09874 whole entry): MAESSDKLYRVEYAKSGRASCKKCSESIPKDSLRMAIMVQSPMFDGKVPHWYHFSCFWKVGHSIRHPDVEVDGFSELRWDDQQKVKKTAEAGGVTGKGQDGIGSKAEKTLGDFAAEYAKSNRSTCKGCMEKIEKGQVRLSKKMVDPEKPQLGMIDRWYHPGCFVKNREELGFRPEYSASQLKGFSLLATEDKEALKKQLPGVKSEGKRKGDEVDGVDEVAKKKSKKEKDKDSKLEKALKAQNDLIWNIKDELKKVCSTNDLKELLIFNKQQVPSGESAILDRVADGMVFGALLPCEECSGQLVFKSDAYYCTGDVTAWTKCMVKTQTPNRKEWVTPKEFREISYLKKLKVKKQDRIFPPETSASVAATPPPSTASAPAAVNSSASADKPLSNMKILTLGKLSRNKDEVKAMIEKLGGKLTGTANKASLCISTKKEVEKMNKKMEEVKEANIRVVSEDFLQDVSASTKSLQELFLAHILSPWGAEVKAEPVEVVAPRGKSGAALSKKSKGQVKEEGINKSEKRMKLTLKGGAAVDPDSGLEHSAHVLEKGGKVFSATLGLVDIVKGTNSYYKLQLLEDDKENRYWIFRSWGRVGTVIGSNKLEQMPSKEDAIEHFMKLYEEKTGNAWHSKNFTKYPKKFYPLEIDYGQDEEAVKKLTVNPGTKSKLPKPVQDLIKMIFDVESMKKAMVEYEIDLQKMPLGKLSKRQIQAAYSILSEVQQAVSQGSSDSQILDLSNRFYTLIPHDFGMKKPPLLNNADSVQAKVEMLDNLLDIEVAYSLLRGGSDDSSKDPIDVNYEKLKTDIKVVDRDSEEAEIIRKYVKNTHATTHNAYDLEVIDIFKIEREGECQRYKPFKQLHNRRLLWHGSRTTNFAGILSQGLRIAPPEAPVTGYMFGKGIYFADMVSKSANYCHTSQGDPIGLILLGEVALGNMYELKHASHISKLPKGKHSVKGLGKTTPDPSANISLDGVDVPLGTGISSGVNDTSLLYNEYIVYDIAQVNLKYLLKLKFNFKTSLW

| Compound | Induction of at least two of five FOXO3-regulated genes (SOD2, GADD45A, CAT, DDB1, TXNIP) (FOXO3; 10 μM, 24 hrs) | E = Potential FOXO3 Activation (FOXO3; 2-point score) | fold induction at 10 µM (FOXO3; [1]) | fold induction at 10 µM (FOXO3; [2]) | fold induction at 10 µM (FOXO3; [3]) | fold induction at 10 µM (FOXO3; [5]) | fold induction at 10 µM (FOXO3; [7]) | fold induction at 10 µM (FOXO3; [8]) | fold induction at 10 µM (FOXO3; [9]) | fold induction at 10 µM (FOXO3; [10]) | fold induction at 10 µM (FOXO3; [11]) | fold induction at 10 µM (FOXO3; [13]) | fold induction at 10 µM (FOXO3; [14]) | fold induction at 10 µM (FOXO3; [15]) | fold induction at 10 µM (FOXO3; [16]) | K = Sestrin induction (FOXO3) | E = Potential FOXO3 Activation (FOXO3; summary score) | L = H2O2-resistance in worms (C. elegans) | N = H2O2-resistance in woms (C. elegans) | L = PARP inhibition (human PARP1) | further results |
| --- | --- | --- | --- | --- | --- | --- | --- | --- | --- | --- | --- | --- | --- | --- | --- | --- | --- | --- | --- | --- | --- |
| NS(=O)(=O)c1ccc(NC(=O)c2ccc([N+](=O)[O-])o2)cc1 [Gr-1A] | significant induction; also recorded: significant, induction; also recorded: induce FOXO3-regulated genes | 0 | 1.36 | 1.16 | 1.93 | 1.31 | 2.12 | 1.35 | 1.27 | 2.12 | 1.31 | 2.12 | 1.31 | 1.5 | 1.23 | 1 | 0 | 0 | 0 | 0 | fold induction at 10 µM (FOXO3; [4]): > 1.5; fold induction at 10 µM (FOXO3; [6]): 1.36; fold induction at 10 µM (FOXO3; [12]): 1.36; H2O2-resistance assay, 1st experiment (C. elegans): YES; |
| O=C(Nc1cc(C(F)(F)F)ccc1Cl)c1ccc([N+](=O)[O-])o1 [Gr-1B] | significant induction; also recorded: significant, induction | 0 | 1.4 |  |  | 1.4 | 1.3 | 1.18 | 0.947 | 1.3 | 1.4 | 1.3 | 1.4 | 1.21 | 1.94 | 0 | 0 | 0 | 0 | 0 | fold induction at 10 µM (FOXO3; [17]): 1.52; fold induction at 10 µM (FOXO3; [18]): 1.94; fold induction at 10 µM (FOXO3; [19]): 1.94 |
| CCc1ccccc1NC(=O)c1ccc([N+](=O)[O-])o1 [Gr-1C] | significant induction; also recorded: induce FOXO3-regulated genes | 0 | 1.41 | 1.14 | 1.59 | 1.44 |  | 1.4 | 0.727 | 1.9 | 1.44 |  | 1.44 | 1.33 | 1.23 | 0 | 0 | 0 | 0 | 0 | fold induction at 10 µM (FOXO3; [20]): 0.6; fold induction at 10 µM (FOXO3; [4]): > 1.5 |
| O=C(Nc1cccc(Cl)c1)c1ccc([N+](=O)[O-])o1 [Gr-1D] |  | 0 |  | 1.13 | 1.91 |  | 1.73 | 1.18 | 1.92 | 1.73 |  | 1.73 | 0.953 | 1.42 | 0.621 | 1 | 0 | 0 | 0 | 0 | fold induction at 10 µM (FOXO3; [4]): > 1.5; fold induction at 10 µM (FOXO3; [6]): 1.18; fold induction at 10 µM (FOXO3; [18]): 0.62; fold induction at 10 µM (FOXO3; [12]): 1.18; fold induction at 10 µM (FOXO3; [19]): 0.62 |
| O=C(Nc1cccc(C(F)(F)F)c1)c1ccc([N+](=O)[O-])o1 [Gr-1E] | significant induction; also recorded: significant, induction | 0 | 1.38 |  | 1.34 | 1.45 | 1.4 | 1.39 | 0.752 | 1.4 | 1.45 | 1.4 | 1.45 | 1.46 | 2.02 | 0 | 0 | 0 | 0 | 0 | fold induction at 10 µM (FOXO3; [20]): 0.62; fold induction at 10 µM (FOXO3; [17]): 1.33; fold induction at 10 µM (FOXO3; [18]): 2.02; fold induction at 10 µM (FOXO3; [19]): 2.02 |
| Cc1ccc(NC(=O)c2ccc([N+](=O)[O-])o2)cc1C [Gr-1F] |  | 0 |  | 1.12 | 1.64 | 1.35 | 2 | 1.37 | 1.02 | 2 | 1.35 | 2 | 1.35 | 1.68 | 1.54 | 1 | 0 | 0 | 0 | 0 | fold induction at 10 µM (FOXO3; [20]): 0.8; fold induction at 10 µM (FOXO3; [4]): > 1.5 |
| O=C(Nc1ccc(Cl)c(Cl)c1)c1ccc([N+](=O)[O-])o1 [Gr-1G] |  | 0 | 1.35 |  |  | 1.35 |  | 1.14 | 0.597 | 1.38 | 1.35 |  | 1.35 | 0.756 | 1.03 | 0 | 0 | 0 | 0 | 0 | SOD2 expression, normalized fold change (FOXO3-regulated gene) (FOXO3; 10 μM, 24 hrs, WI-38 cells, qPCR, normalized to B2M, n = 4): SOD2 0.76, fold; fold induction at 10 µM (FOXO3; [20]): 0.6; fold induction at 10 µM (FOXO3; 24 h, Assay 10(m), at 10 uM, qPCR, read-out: Induction of FOXO3-regulated genes: SOD2 normalized fold-change): 0.76; fold induction at 10 µM (FOXO3; 10 μM, 24 hrs, WI-38 cells, qPCR, normalized to B2M, n = 4, read-out: GADD45A expression, normalized fold change (FOXO3-regulated gene)): 0.6; fold induction at 10 µM (FOXO3; fold change, qPCR, WI-38 cells, 10 μM, 24 hrs, read-out: Summary of effects on FOXO3-regulated genes: GADD45A): 0.6; Summary of effects on FOXO3-regulated genes: SOD2 (FOXO3; fold change, qPCR, WI-38 cells, 10 μM, 24 hrs): SOD2 0.76, |
| Oc1ccccc1-c1noc(-c2ccccc2O)n1 [O27] |  | 0 |  |  |  |  |  |  |  |  |  |  |  |  |  | 1 | 0 |  |  | 0 |  |
